“Also recorded” adds a separate entry of the source. No end group written: not given here.
Legend:
[1] = tested on: MC-1R; parameters: method as in 2 sources, ref 23 = [23]; PMID 17317724; doi:10.1096/fj.06-7398com; Rousseau K. et al. Proopiomelanocortin (POMC), the ACTH/melanocortin precursor, is secreted by human epidermal keratinocytes and melanocytes and stimulates melanogenesis . FASEB J 21 , 1844 – 1856 ( 2 ||| ref 34 = [34]; PMID 1556905; doi:10.1016/0024-3205(92)90347-r; Slominski. A. et al. Melanotropic activity of gamma MSH peptides in melanoma cells . Life Sci , 50 , 1103 – 1108 ( 1992 ). 1556905 10.1016/0024-3205(92)90347-r; details: cited from earlier work
Source text: To clarify the mechanism of melanin production after UV-irradiation, we assessed the expression of POMC and POMC-derived peptides after UV-irradiation to the skin of the murine auricle.

[2] = tested on: mouse melanoma B16 cells; details: 72 h
Protocol: (B). […] C. […] Each point and line represents the mean ± SEM (n = 4).
(§1) Melanin production activity was performed as follows: B16 cells and normal human melanocytes (TOYOBO. Osaka, Japan) were seeded at the density of 1 × 10[5] cells in 24-well plates and allowed to attach overnight. […] Cells were solubilized in 1 M NaOH at 60°C, and melanin content was measured spectrophotometrically at 475 nm.

[3] = tested on: melanin production; details: bioassay studies on melanin production; cited from earlier work
[4] = tested on: frog skin; parameters: method as in PMID 2822931; details: cited from earlier work
[5] = tested on: lizard skin; parameters: method as in PMID 2537778; details: cited from earlier work
[6] = molecular target: T1, MC-1R (Mus musculus, UniProt Q01727); assay: Inhibition of α-MSH- or ACTH(1–8)-induced melanin production in B16 cells by MC-1R antagonist; format: cell-based; details: dose-dependent effect of antagonist, n = 4
T1 construct: Mouse melanoma cell line B16[43], which express MC-1R and produce melanin; host or cells: B16 mouse melanoma cells (adherent, whole cells)
T1 sequence (Q01727 whole entry): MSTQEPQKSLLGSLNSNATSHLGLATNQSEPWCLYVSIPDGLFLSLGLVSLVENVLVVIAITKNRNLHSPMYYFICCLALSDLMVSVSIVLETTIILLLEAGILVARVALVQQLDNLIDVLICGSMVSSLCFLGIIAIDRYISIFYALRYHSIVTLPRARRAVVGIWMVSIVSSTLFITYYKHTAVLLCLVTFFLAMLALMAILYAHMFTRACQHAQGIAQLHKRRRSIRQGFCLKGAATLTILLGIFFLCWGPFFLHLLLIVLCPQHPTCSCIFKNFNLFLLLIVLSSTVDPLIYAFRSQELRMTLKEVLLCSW
Protocol: Figure 3 ACTH(1–8)-mediated melanin production via the MC-1R. (A). The Radioreceptor assay of ACTH(1–8) (open circle) and α-MSH (closed circle) in mouse melanoma B16 cells. B16 mouse melanoma cells were incubated with [^125I]-α-MSH and 10^−7–10^−11 M ACTH(1–8) or 10^−6–10^−11 M α-MSH. The receptor binding of [^125I]-α-MSH was expressed as 100% in the absence of α-MSH and 0% in the presence of 1 μM α-MSH and calculated as relative activity. (B). ACTH(1–8)- and α-MSH-mediated melanin production. B16 mouse melanoma cells were incubated with 10^−7–10^−11 M ACTH(1–8) (open circle) or 10^−6–10^−11 M α-MSH (closed circle). Melanin levels are expressed as 100% and 0% in the presence of 1 μM α-MSH and absence of α-MSH, respectively, and calculated as the relative activity. C. […] Melanin levels are expressed as 100% and 0% in the presence of 1 μM α-MSH and absence of α-MSH, respectively, and calculated as the relative activity.
as §1, with “nm. Melanin levels were expressed as 100% and 0% in the presence of 1 μM α-MSH and absence of α-MSH, respectively. […]” for “nm.”

[7] = tested on: MC-1R; details: cited from earlier work
Source text: Melanin plays an important role in protecting skin after UV-irradiation. α-MSH is a major catalyst for melanogenesis in the skin following UV-irradiation. α-MSH-LI and ACTH-LI may be present in culture media of normal keratinocytes, fibroblasts, melanocytes, and their cell extracts. Although POMC and POMC-derived peptides such as ACTH and α-MSH are released from the intermedia of the pituitary, it is unlikely that pituitary secretions contribute to local pigmentation. In the present report, POMC-related peptides were detected in the UV-irradiated auricle ... || Structure-activity analyses of α-MSH have reported information on the essential sequence required for MC-1R binding and melanin production. […] However, Ac-His-Phe-Arg-Trp-NH2 had 400,000-fold less activity (EC50 20 μM) than α-MSH in a frog skin bioassay[31] and approximately 7,000-fold less activity (EC50 1 μM) in a lizard skin bioassay. Furthermore, the N-terminal region of α-MSH is ...

adrenocorticotropic hormone (SYSMEHFRWGKPVGKKRRPVKVYPNGAEDESAEAFPLEF; Corticotropin; UniProt P01189 138-176, looked up) [ACTH, intermediate form of α-MSH, produced from POMC; 4.5 kDa]
agonism at MC-1R ([1]; MC1-R): known agonists

SYSMEHFR [ACTH(1–8)]
EC50 [2]: 0.08 µM

Ac-His-Phe-Arg-Trp-NH2
melanotropic response [3]: minimal synthetic fragment capable of eliciting a melanotropic response | EC50 ([4]; frog skin, read-out: EC50, frog skin bioassay): 20 µM | fold less activity than α-MSH, frog skin bioassay ([4]; relative to α-MSH): 400,000 fold | EC50 ([5]; lizard skin, read-out: EC50, lizard skin bioassay): 1 µM | fold less activity than α-MSH, lizard skin bioassay ([5]; relative to α-MSH): approximately 7,000 fold

ASP(87–132)-NH2: a MC-1R antagonist (TPLSAPCVATRNSCKPPAPACCDPCASCQCRFFRSACSCRVLSLNC-NH2; cysteine pairing not given here; UniProt P42127 87-132, looked up, fragment)
effect on ACTH(1–8)-mediated melanin production ([6]; 10^−7 M ACTH(1–8)): competitively attenuated; also recorded: decreased both ACTH(1–8)- and α-MSH-mediated melanogenesis | effect on α-MSH-mediated melanin production ([6]; 10^−8 M α-MSH): decreased both ACTH(1–8)- and α-MSH-mediated melanogenesis

γ-MSH
melanin production [7]: increases melanin production | antagonism against MC-1R [1]: competitive antagonist against MC-1R | potency when binding to MC-1R ([1]; compared with ACTH(1–8)): potent when binding to MC-1R, but at low potency levels similar to ACTH(1–8)
